In ChEMBL document CHEMBL1134865, “Antimalarial compounds from Parinari capensis” (Bioorg Med Chem Lett, 2002):
≈ marks a conversion by molar mass, not a printed value.

Tests used:
[1] = Compound was evaluated for toxicity on Human kidney epithelial (Graham cells) at a dose of 100 ug/mL; assay type: cell-based
[2] = Compound was evaluated for its antimalarial activity in vitro on Plasmodium falciparum; assay type: functional
[3] = Compound was evaluated for toxicity on Human kidney epithelial (Graham cells) at a dose of 100 ug/mL; Not toxic; assay type: cell-based

Compound | IC50 [2] | IC50 [1] | IC50 [3]
C=C1C(=O)[C@@]23CC[C@@H]4[C@@]5(C)CCC[C@@]4(OC5=O)[C@@]2(C)CC[C@]1(OC)C3 | 0.67 µg/mL (≈ 1.95 µM) | 1.13 µg/mL (≈ 3.28 µM) | –
C=C1C(=O)[C@@]23CCC4[C@@]5(C)CCC[C@@]4(OC5=O)[C@@]2(C)CC[C@@H]1C3 (stereo not given in full) | 1.57 µg/mL (≈ 4.99 µM) | 3.01 µg/mL (≈ 9.57 µM) | –
C=C[C@H]1CN2CC[C@H]1C[C@H]2[C@H](O)c1ccnc2ccc(OC)cc12 [QUININE] | 0.17 µg/mL (≈ 0.524 µM) | – | Non-toxic

Second part, led by results:

IC50 [2] | Compound | IC50 [1] | IC50 [3]
0.54 µg/mL (≈ 1.63 µM) | C=C1C(=O)[C@@]23CCC4[C@@]5(C)CCC[C@@]4(OC5=O)[C@@]2(C)CC[C@]1(O)C3 (stereo not given in full) | 1.73 µg/mL (≈ 5.24 µM) | –
0.04 µg/mL (≈ 0.125 µM) | CCN(CC)CCCC(C)Nc1ccnc2cc(Cl)ccc12 (stereo not given) [CHLOROQUINE] | – | Non-toxic
